The subject of series [1] is Mus musculus. Put plainly: Anti-obesity activity in male C57BL/6 mouse model of high-fat diet induced obesity assessed as body weight change at 25 mg/kg, ip administered once a day for 13 weeks relative to control. In kind it is functional.
Series [2] can be described thus: Toxicity in po dosed mouse assessed as lethal dose. In kind it is organism-based. Conditions: in vivo.
For series [3], the system named is Mus musculus. Briefly: Anti-obesity activity in male C57BL/6 mouse model of high-fat diet induced obesity assessed as body weight change at 0.1 mg/kg, ip administered once a day for 3 weeks relative to control. In kind it is functional.
The subject of series [4] is Mus musculus. Put plainly: Anti-obesity activity in male C57BL/6 mouse model of high-fat diet induced obesity assessed as body weight change at 3 mg/kg, po administered once a day for 8 weeks relative to control. In kind it is functional.
The subject of series [5] is Mus musculus. Briefly: Anti-obesity activity in male C57BL/6 mouse model of high-fat diet induced obesity assessed as body weight change at 10 mg/kg, po administered once a day for 3 weeks relative to control. In kind it is functional.
In series [6] the test system is Mus musculus. Put plainly: Anti-obesity activity in male C57BL/6 mouse model of high-fat diet induced obesity assessed as body weight change at 1 mg/kg, po administered once a week for 7 weeks relative to control. In kind it is functional.
In series [7] the test system is Mus musculus. Put plainly: Anti-obesity activity in male C57BL/6 mouse model of high-fat diet induced obesity assessed as body weight change administered orally with 0.5 g in 500 g of HFD diet for 13 weeks relative to control. Conditions: route po, at 0.5 g. In kind it is functional.
In series [8] the test system is Mus musculus. Briefly: Anti-obesity activity in male C57BL/6 mouse model of high-fat diet induced obesity assessed as body weight change at 20 mg/kg, ip administered twice a week for 12 weeks relative to control. In kind it is functional.
Series [9] deals with Mus musculus. Briefly: Anti-obesity activity in male C57BL/6 mouse model of high-fat diet induced obesity assessed as body weight change at 50 mg/kg, po administered once a day for 6 weeks relative to control. In kind it is functional.
Series [10] addresses T1, Pancreatic triacylglycerol lipase (Sus scrofa, UniProt P00591).
T1 sequence (P00591 whole entry): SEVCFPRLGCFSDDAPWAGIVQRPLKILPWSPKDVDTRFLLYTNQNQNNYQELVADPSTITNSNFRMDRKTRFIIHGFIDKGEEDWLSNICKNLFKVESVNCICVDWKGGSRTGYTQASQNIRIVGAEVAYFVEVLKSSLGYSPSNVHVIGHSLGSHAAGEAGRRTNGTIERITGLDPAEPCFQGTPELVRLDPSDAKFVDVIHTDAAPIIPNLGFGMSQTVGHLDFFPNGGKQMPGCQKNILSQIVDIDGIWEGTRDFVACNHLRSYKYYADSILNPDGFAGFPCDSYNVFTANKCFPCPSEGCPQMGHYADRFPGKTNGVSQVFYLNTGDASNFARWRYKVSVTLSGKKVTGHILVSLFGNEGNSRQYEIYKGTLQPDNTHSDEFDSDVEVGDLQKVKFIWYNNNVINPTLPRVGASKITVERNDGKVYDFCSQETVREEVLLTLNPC
Briefly: Inhibition of porcine pancreatic lipase using trioleate as substrate assessed as inhibition of substrate hydrolysis measured for 10 mins.

The subject of series [11] is Mus musculus. Briefly: Anti-obesity activity in male C57BL/6 mouse model of high-fat diet induced obesity assessed as body weight change at 50 mg/kg, po administered once a day for 9 weeks relative to control. In kind it is functional.
In series [12] the test system is Mus musculus. Briefly: Anti-obesity activity in female C57BL/6 mouse model of high-fat diet induced obesity assessed as body weight change administered orally for 20 weeks relative to control. In kind it is functional. Conditions: route po.
Series [13] concerns the target BDNF/NT-3 growth factors receptor (Homo sapiens, UniProt Q16620). Briefly: Binding affinity to recombinant human TrkB receptor ECD assessed as dissociation constant.
In series [14] the test system is Mus musculus. Briefly: Anti-obesity activity in male C57BL/6 mouse model of high-fat diet induced obesity assessed as body weight change at 5 mg/kg, po administered thrice a week for 8 weeks relative to control. In kind it is functional.
For series [15], the system named is Mus musculus. Put plainly: Anti-obesity activity in male C57BL/6 mouse model of high-fat diet induced obesity assessed as body weight change at 50 mg/kg, po administered once a day for 8 weeks relative to control. In kind it is functional.
Series [16] has as its system Mus musculus. Put plainly: Anti-obesity activity in ovariectomized C57BL/6 mouse assessed as body weight change at 40 mg/kg, po administered once daily for 16 weeks relative to control. In kind it is functional.
Series [17] deals with Mus musculus. Put plainly: Anti-obesity activity in female C57BL/6 mouse model of high-fat diet induced obesity assessed as body weight change at 40 mg/kg, po administered once daily for 16 weeks relative to control. In kind it is functional.

The values below come from ChEMBL document CHEMBL5126556, “Recent advances in natural anti-obesity compounds and derivatives based on in vivo evidence: A mini-review” (Eur J Med Chem, 2022).

Sequence of BDNF/NT-3 growth factors receptor (Q16620 whole entry, the tested form may be a part): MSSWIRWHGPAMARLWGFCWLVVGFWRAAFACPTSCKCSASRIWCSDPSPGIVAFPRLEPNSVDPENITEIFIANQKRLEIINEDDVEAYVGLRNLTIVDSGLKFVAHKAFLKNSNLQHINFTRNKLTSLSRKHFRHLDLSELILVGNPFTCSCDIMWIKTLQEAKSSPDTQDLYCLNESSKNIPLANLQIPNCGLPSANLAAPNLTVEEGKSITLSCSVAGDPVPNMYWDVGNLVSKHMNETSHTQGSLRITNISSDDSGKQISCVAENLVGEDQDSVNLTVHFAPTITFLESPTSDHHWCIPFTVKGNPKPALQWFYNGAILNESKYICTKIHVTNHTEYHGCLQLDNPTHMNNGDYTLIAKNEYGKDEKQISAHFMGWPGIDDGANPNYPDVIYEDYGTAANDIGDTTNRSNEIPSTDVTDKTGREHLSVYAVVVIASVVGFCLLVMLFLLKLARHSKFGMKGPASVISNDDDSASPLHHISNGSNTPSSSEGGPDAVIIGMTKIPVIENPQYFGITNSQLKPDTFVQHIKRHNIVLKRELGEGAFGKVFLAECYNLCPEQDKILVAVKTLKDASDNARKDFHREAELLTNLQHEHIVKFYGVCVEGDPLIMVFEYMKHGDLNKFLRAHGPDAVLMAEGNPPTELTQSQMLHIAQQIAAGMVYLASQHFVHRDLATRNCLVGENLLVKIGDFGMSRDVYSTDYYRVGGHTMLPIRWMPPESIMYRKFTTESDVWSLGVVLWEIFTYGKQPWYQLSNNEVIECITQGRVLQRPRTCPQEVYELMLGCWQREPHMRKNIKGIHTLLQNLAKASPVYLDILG

Take `CC(C)(O)[C@@H]1CC[C@](C)([C@H]2[C@@H](O)C[C@@]3(C)[C@@H]4C[C@H](O[C@@H]5O[C@H](CO)[C@@H](O)[C@H](O)[C@H]5O)[C@H]5C(C)(C)[C@@H](O[C@@H]6OC[C@@H](O)[C@H](O)[C@H]6O)CC[C@@]56C[C@@]46CC[C@]23C)O1`: in series [1], the Activity was 25.4%.
By LD50 is commonly meant the dose expected to kill half of the subjects tested. As to `CC1=C(O)C(=O)C=C2C1=CC=C1[C@@]2(C)CC[C@@]2(C)[C@@H]3C[C@](C)(C(=O)O)CC[C@]3(C)CC[C@]12C` [CELASTROL], the LD50 in [2] stood at 20.5 mg/kg. Further, the Activity is reported as -27.7% in series [3], 1.8% in [4] and -45.4% in [5].
Consider `O=C1N[C@@H]2C(=C[C@H](O)[C@@H](O)[C@H]2O)c2cc3c(c(O)c21)OCO3` [NARCICLASINE], for which the Activity in series [6] turned out to be 23.6%.
Consider `O=c1c(-c2ccc(O)c(O)c2)coc2cc(O)ccc12`, for which the Activity in series [7] is recorded as 63.5%.
Consider `CC1(C)CC[C@]2(C(=O)O)CC[C@]3(C)C(=CC[C@@H]4[C@@]5(C)C[C@@H](O)[C@H](O)C(C)(C)[C@@H]5CC[C@]43C)[C@@H]2C1` [MASLINIC ACID], for which the Activity in [8] was found to be 18.2%.
Consider `C[C@H](CC(=O)C[C@@H](C)[C@H]1C[C@H](O)[C@@]2(C)C3=C(C(=O)C[C@]12C)[C@@]1(C)CCC(=O)C(C)(C)[C@@H]1C[C@@H]3O)C(=O)O` [GANODERIC ACID A], for which the Activity in [9] came to 17.4%.
By IC50 is commonly meant the midpoint of a concentration-inhibition curve. As for `CCCCC/C=C\C/C=C\C[C@@H](C[C@@H]1OC(=O)[C@H]1CCCCCC)OC(=O)[C@H](CC(C)C)NC=O`, the IC50 in [10] came to 140 nM.
Consider `CC1(C)C=Cc2cc(-c3coc4cc(O)ccc4c3=O)ccc2O1` [ISOWIGHTEONE], for which the Activity in [11] amounted to 8.3%.
As usually defined, the Kd is the free concentration of one partner at which half of the binding sites on the other are occupied at equilibrium, for simple one-to-one binding. Regarding `O=c1cc(-c2ccccc2)oc2c(O)c(O)ccc12` [7,8-DIHYDROXYFLAVONE], the Activity in series [12] is recorded as 72.2%. Moreover, the Kd in series [13] amounted to 10 nM.
For the molecule `Cc1coc2c1C(=O)C(=O)c1c-2ccc2c(C)cccc12` [TANSHINONE I], the Activity in [14] is 30.6%.
Consider `COc1cc(O)c(C(=O)[C@@H]2[C@H](CC=C(C)C)C(C)=CC[C@H]2c2ccccc2)c(O)c1` [PANDURATIN A], for which, in series [15], the Activity came out at 15%.
Regarding `COc1cc(O)c2c(=O)oc(-c3ccccc3)cc2c1CC=C(C)C`, the Activity in [16] is 17.9%; in series [17] it was 28.6%.
